According to patent US9290529B2, “Carbonic anhydrase inhibitors and method of their production” (USTAV ORGANICKE CHEMIE A BIOCHEMIE AKADEMIE VED CESKE …, priority 2011, dated 2016):
Read-outs that look alike come from different tables or passages of the source.

How the values were obtained:
HCT116p53−/− = test: MTT cytotoxicity assay, HCT116p53−/−; format: cell-based, human; conditions: 72 h
Excerpt: (§1) One of the parameters used as the basis for colorimetric assays is the metabolic activity of viable cells. For example, a microtiter assay which uses the tetrazolium salt MTT is now widely used to quantitate cell proliferation and cytotoxicity (Hájduch et al., Cytotechnology, 19, 1996, 243-245). For instance, this assay is used in drug screening programs and in chemosensitivity testing. Because tetrazolium salts are cleaved only by metabolically active cells, these assays exclusively detect viable cells. In the case of the MTT assay, yellow soluble tetrazolium salt is reduced to a coloured water-insoluble formazan salt. After it is solubilized, the formazan formed can easily and rapidly be quantified in a conventional ELISA plate reader at 570 nm (maximum absorbancy). The quantity of reduced formazan corresponds to the number of vital cells in the culture.
(§2) All cells were purchased from the […] (ATCC), unless otherwise indicated: the CEM line are highly chemosensitive T-lymphoblastic leukemia cells, K562 cells were derived from patient with […] with bcr-abl translocation, A549 line is lung adenocarcinoma, HCT116 is colorectal tumor cell line and its p53 gene knock-down counterpart (HCT116p53−) is a model of human cancers with p53 mutation frequently associated with poor prognosis. The daunorubicin resistant subline of CEM cells (CEM-DNR bulk) and paclitaxel resistant subline K562-tax were selected in our laboratory by the cultivation of maternal cell lines in increasing concentrations of daunorubicine or paclitaxel, respectively (Noskova et al., Neoplasma 49, 2002, 418). The CEM-DNR bulk cells overexpress MRP-1 protein, while K562-tax cells overexpress P-glycoprotein, both proteins belong to family of ABC transporters and are involved in primary and/or acquired multidrug resistance phenomenon (Noskova et al., Neoplasma 49, 2002, 418). The cells were maintained in Nunc/Corning 80 cm^2 plastic tissue culture flasks and cultured in cell culture medium (DMEM/RPMI 1640 with 5 g/l glucose, 2 mM glutamine, 100 U/ml penicillin, 100 μg/ml streptomycin, 10% fetal calf serum, and NaHCO3).
(§3) This assay was performed according to Hajduch et al., Anti-Cancer Drugs 10, 1997, 1007. Cell suspensions were prepared and diluted according to the particular cell type and the expected target cell density (2 500-30 000 cells/well based on cell growth characteristics). Cells were added by pipette (80 μl) into 96-well microtiter plates. Inoculates were allowed a pre-incubation period of 24 h at 37° C. and 5% CO2 for stabilization. Four-fold dilutions, in 20-μl aliquots, of the intended test concentration were added to the microtiter plate wells at time zero. All test compound concentrations were examined in duplicate. Incubation of the cells with the test compounds lasted for 72 h at 37° C., in a 5% CO2 atmosphere at 100% humidity. At the end of the incubation period, the cells were assayed using MTT. Aliquots (10 μl) of the MTT stock solution were pipetted into each well and incubated for a further 1-4 h. After this incubation period the formazan produced was dissolved by the addition of 100 μl/well of 10% aq SDS (pH=5.5), followed by a further incubation at 37° C. overnight. The optical density (OD) was measured at 540 nm with a Labsystem iEMS Reader MF. Tumor cell survival (TCS) was calculated using the following equation: TCS=(ODdrug-exposed well/mean ODcontrol wells)×100%. The TCS50 value, the drug concentration lethal to 50% of the tumor cells, was calculated from appropriate dose-response curves.

HCT116 = test: MTT cytotoxicity assay, HCT116; format: cell-based, human; conditions: 72 h
Excerpt: as §1, §2, §3

MRC-5 = test: MTT cytotoxicity assay, MRC-5; format: cell-based; conditions: MRC-5, MTT, 72 h
Excerpt: as §1, §3

CEM-DNR = test: MTT cytotoxicity assay, CEM-DNR; format: cell-based, human; conditions: 72 h
Excerpt: as §1, §2, §3

[1] = biological target: T1, human carbonic anhydrase II (hCA II) (Homo sapiens, UniProt P00918); test: Colorimetric carbonic anhydrase inhibition assay (CO2 hydration, phenol red), hCA II; format: biochemical; conditions: 0° C., HEPES pH 7.0
T1 construct: purchased Sigma Aldrich C6165
Procedure: (§4) The compounds were assayed for inhibition activity of two isoforms of human carbonic anhydrase: hCA II and hCA IX. The human carbonic anhydrase II (HCA II) was purchased from Sigma Aldrich (Cat. No. C6165) in the form of lyophilized protein, which was dissolved before use in 10 mmol·l^−1 HEPES pH 7.0 to a concentration of 300 μmol·l^−1 and further diluted as required. Human carbonic anhydrase IX (HCA IX) was prepared by recombinant expression system in insect (Drosophila expression system, Invitrogen). […] This protein was further purified from media by chelating chromatography carrier His-Select Nickel Affinity Gel (Sigma, Cat No. P6611) and gel chromatography (Superdex 200 GL 30/300, GE Healthcare) according to the manufacturer's recommendations.
(§5) The principle of the method is based on measuring the rate of acidification of the solution that is observed as the color-shift of the acid-base-indicator (fenol red). The reaction was conducted in a glass tube placed in an ice bath (0° C., all stock solutions and enzymes were kept at the same temperature). […] This was followed by a CO2 saturation (stream flow 50 ml/min.) using a needle (18 G) up to color transition of fenol-red from red to yellow (typically 60 seconds by default). […] End point of reaction was determined by visual comparison with reference tube containing acid-base indicator (0.01% (wt./vol.) Fenol-red) and the pH adjusted to 7.0. […] Molar activity was calculated according to the formula:
(§6) [formula] where tB is the time of negative control without enzyme and tS is the time measured with an enzyme sample (and inhibitor), nprot is the number of moles of protein present in the sample. The value of IC50 for the inhibitor concentration corresponds inhibitor contraction required to decrease the specific activity to half of the value of non-inhibited enzyme. Selectivity towards CA IX inhibitor was calculated as the ratio of IC50 values for inhibition of HCA II against the value of IC50 for inhibition CA IX enzyme.

[2] = biological target: T2, human carbonic anhydrase IX (hCA IX) (Homo sapiens, UniProt Q16790); test: Colorimetric carbonic anhydrase inhibition assay (CO2 hydration, phenol red), hCA IX; format: biochemical; conditions: for Selectivity to hCA IX IC50 (hCA II)/IC50 (hCA IX): ratio of IC50 values
T2 construct: Construct contained the extracellular CA domain (amino acid residues 139-390) cloned into the pMT/BiP/V5-His vector; His tag (from vector pMT/BiP/V5-His) (C); BiP secretion signal (from vector pMT/BiP/V5-His) (N); made in house; host or cells: Drosophila expression system (Invitrogen), insect cells, secreted into SF 900 II medium
Procedure: as §4, §5, §6

[3] = 0° C., HEPES pH 7.0, recombinant extracellular CA domain, read-out: IC50 (hCA IX)
[4] = reference value in legend of FIG. 34, read-out: IC 50 CAIX (figure legend)

Substance | IC50 [1] [µM] | IC50 [2, 3] [µM] | Selectivity to hCA IX IC50 (hCA II)/IC50 (hCA IX) [2] | IC50 (HCT116p53−/−) [µM] | IC50 (HCT116) [µM] | IC50 (MRC-5) [µM] | IC50 (CEM-DNR) [µM] | IC50 [2, 4] [µM]
7-methylensulfamide-(7,8-nido-dicarbaundekaborate) (1-) [CB-2] | 4.6 | 2.6 | – | – | ≥ 100 | ≥ 100 | 96.7 ± 3.8 | –
8-methylensulfamide-8″-methoxy-3,3′-commo-bis(1,2-dicarba-3-cobalta(III)-closo-dodecabor)ate (1-) [CB-4] | 5 | 0.05 | 100 | 71.9 ± 3.4 | 69.2 ± 3 | 77.9 ± 1 | 74.5 ± 2.8 | 0.05
1-sulfamide-closo-1-carbadodecaborate (1-) [CB-3] | – | 3.6 | – | ≥ 100 | ≥ 100 | ≥ 100 | – | –
8-ethylaminomethylsulfamide-8″-methoxy-3,3′-commo-bis(decahydro-1,2-dicarba-3-cobalta(III)-closo-dodecabor)ate (1-) [CB-15] | 14 | 2 | 7.00 | 17.6 ± 0.9 | 16.6 ± 0.2 | 27 ± 4.8 | 47.9 ± 7.6 | –
9-sulfamide-9′-amine-2,2′-commo-bis(1,7,9-trikarba-2-ferra(II)-kloso-dodekabor)ane [CB-12] | 14.9 | 1.49 | 10.0 | ≥ 100 | ≥ 100 | ≥ 100 | ≥ 100 | –
10-sulfamide-9′-amine-2,2′-commo-(1,7,10-tricarba-1′,7′,9′-tricarba-2-ferra (II)-closo-dodekabor)ane [CB-10] | 67.9 | 9.68 | 7.0 | – | 96.4 ± 4.5 | ≥ 100 | ≥ 100 | –
8-butyloxysulfamide-3,3′-commo-bis(decahydro-1,2-dicarba-3-cobalta(III)-closo-dodekabor)ate (1-) [CB-16] | 0.68 | 0.28 | 2.43 | 78.4 ± 3.9 | 84.8 ± 3 | ≥ 100 | 95.1 ± 7.9 | 0.28
1-methylenesulfamide-1,7-dicarba-closo-dodecaborane [CB-19] | 8.9 | 2 | 4.45 | 78.3 ± 6.5 | 89.3 ± 3.3 | ≥ 100 | 100 ± 0.1 | –

Further lines, with some results ahead:

IC50 [1] [µM] | IC50 [2, 3] [µM] | Selectivity to hCA IX IC50 (hCA II)/IC50 (hCA IX) [2] | Substance | IC50 (HCT116p53−/−) [µM] | IC50 (HCT116) [µM] | IC50 (MRC-5) [µM] | IC50 (CEM-DNR) [µM] | IC50 [2, 4] [µM]
2.4 | 0.37 | – | 1-methylensulfamide-1,2-dicarba-closo-dodekaborane [CB-1] | 62 ± 2.7 | 63.9 ± 5.7 | 22.1 ± 1.1 | 79 ± 8.9 | –
12 | 0.35 | 34.3 | 8-diethyleneoxysulfamide-3,3′-commo-bis(decahydro-1,2-dicarba-3-cobalta(III)-closo-dodekabor)ate (1-) [CB-17] | ≥ 100 | ≥ 100 | ≥ 100 | ≥ 100 | –
1.6 | 0.49 | 3.27 | Di(methylenesulfamide)-1,7-dicarba-closo-dodecaborane [CB-20] | ≥ 100 | 99.6 ± 1.1 | ≥ 100 | – | –
3.7 | 0.04 | 92.5 | 1-methylenesulfamide-3,3′-commo-bis(1,2-dicarba-3-cobalta(III)-closo-dodecabor)ate (1-) [CB-5] | 64.7 ± 9.1 | 75.3 ± 4.1 | 93.2 ± 7 | – | –
4 | 0.08 | 48.8 | 8-propylenesulfamide-7-phenyl-(7,8-nido-dicarbaundecabor)ate (1-) [CB-13] | 61.3 ± 4.9 | 55.5 ± 1.8 | 75.6 ± 1.5 | 68 ± 1.6 | –
2.44 | 0.37 | 6.59 | 1-methylenesulfamide-9-phenyl-1,2-dicarba-closo-dodecaborane and 1-methylene-sulfamide-12-phenyl-1,2-dicarba-closo-dodecaborane [CB-8] | 86.6 ± 7.5 | 97.4 ± 3.4 | ≥ 100 | 96.8 ± 3.3 | –
39.1 | 1.08 | 36.2 | 7-methylensulfamide-8-phenyl-(7,8-nido-dikarbaundekabor)ate (1-) [CB-6] | 24.2 ± 3.2 | 78.4 ± 17 | – | 98.1 ± 3 | –
